Test results published in patent US20140134135A1, “METHODS AND COMPOSITIONS FOR PRESERVING LEAN BODY MASS DURING WEIGHT LOSS” (NESTEC SA, priority 2011, published 2014).

Experiment: Four-month weight loss study with oral OEA in the diet; body weight and body composition by DEXA
Type: in vivo, dogs (adult Labradors)
Source text: The physiological effects of regular oral OEA administration were investigated. OEA was provided as a supplement to dogs for four months to study the effect on body weight loss and body composition. Seventeen adult Labradors participated in the study. Males with greater than 22% body fat and females with greater than 26% body fat were selected. Based on maintenance energy requirements (MER), body weight and percentage of body fat, the dogs were randomly assigned into two groups. The control group (N=9) received a standard dry adult dog food (the control diet without any OEA). The test group (N=8) received the selected dose of OEA incorporated into the standard diet. The dogs were fed 25% less than their MER for 3 months and an additional 15% less for the next month. Body weight was recorded weekly and dual X-ray absorptiometry (DEXA) scans were performed at baseline and every month.

[1] = dogs fed OEA containing diet, calorie restricted, four months, chronic oral
[2] = dogs fed a weight loss diet with OEA

CCCCCCCC/C=C\CCCCCCCC(=O)NCCO [OEA, oleoylethanolamide]
Fat Loss (g/kg body weight loss) [1]: 561 g/kg body weight loss | Lean Loss (g/kg body weight loss) [1]: 469 g/kg body weight loss | body fat loss versus weight loss diet without OEA (in words) [2]: more loss in body fat | lean body mass loss versus weight loss diet without OEA (in words) [2]: reduced loss of lean body mass | less fat lost by dogs fed the control diet than by dogs fed the OEA containing diet, for every kilogram of body weight loss (end of the four month study, control diet versus OEA diet): 52% | less lean body mass lost than dogs fed the control diet, for every kilogram of body weight loss (end of the four month study, versus control diet): 20% | change in body fat (end of the four month study, control diet −0.3%): −1.8% | change in lean body mass (end of the four month study, control diet −1432.2 g): -1166.6 g
